According to ChEMBL document CHEMBL1201862, “PubChem BioAssay data set” (2004):
Calls of active or inactive are those of the source.

Tests used:
[1] = target: T1, Tyrosine-protein phosphatase non-receptor type 7 (Homo sapiens, UniProt P35236); assay: redox-dependent HePTP inhibition, mechanism study, biochemical, fluorescence (AID 2068); format: functional
T1 sequence (P35236 whole entry): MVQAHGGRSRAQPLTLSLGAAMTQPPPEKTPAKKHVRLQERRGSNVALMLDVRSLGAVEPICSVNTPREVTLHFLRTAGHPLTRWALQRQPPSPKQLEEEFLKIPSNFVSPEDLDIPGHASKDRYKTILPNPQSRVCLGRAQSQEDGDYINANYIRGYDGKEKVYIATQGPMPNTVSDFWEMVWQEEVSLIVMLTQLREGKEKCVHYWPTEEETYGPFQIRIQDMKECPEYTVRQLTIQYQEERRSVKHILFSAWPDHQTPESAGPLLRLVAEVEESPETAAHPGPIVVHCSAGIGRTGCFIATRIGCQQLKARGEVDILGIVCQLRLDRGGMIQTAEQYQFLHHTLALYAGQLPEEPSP

[2] = target: T2, Dual specificity protein phosphatase 3 (Homo sapiens, UniProt P51452); assay: SAR VHR1 absorbance Assay for In Vitro dose response studies. [Related pubchem assays (depositor defined):AID1654, AID1661, AID1878, AID1992, AID2004]
T2 sequence (P51452 whole entry): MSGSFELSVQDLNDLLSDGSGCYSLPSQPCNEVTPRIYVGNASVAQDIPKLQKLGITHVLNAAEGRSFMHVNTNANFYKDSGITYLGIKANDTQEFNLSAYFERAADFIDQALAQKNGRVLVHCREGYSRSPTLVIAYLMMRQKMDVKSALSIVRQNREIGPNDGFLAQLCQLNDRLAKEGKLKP

[3] = target: T2, Dual specificity protein phosphatase 3; assay: MOA VHR1 Fluorescent secondary assay for identification of redox-state modulating compounds. [Related pubchem assays (depositor defined):AID1654, AID1661, AID1878, AID1957]
[4] = target: T3, Polyadenylate-binding protein 1 (Homo sapiens, UniProt P11940); assay: PABP1 MLLE–PAM2 binding inhibitor potency, dose response, biochemical, fluorescence polarization, FITC-PAM2 peptide (AID 602259); format: functional; settings: read-out: IC50_Mean
T3 sequence (P11940 whole entry): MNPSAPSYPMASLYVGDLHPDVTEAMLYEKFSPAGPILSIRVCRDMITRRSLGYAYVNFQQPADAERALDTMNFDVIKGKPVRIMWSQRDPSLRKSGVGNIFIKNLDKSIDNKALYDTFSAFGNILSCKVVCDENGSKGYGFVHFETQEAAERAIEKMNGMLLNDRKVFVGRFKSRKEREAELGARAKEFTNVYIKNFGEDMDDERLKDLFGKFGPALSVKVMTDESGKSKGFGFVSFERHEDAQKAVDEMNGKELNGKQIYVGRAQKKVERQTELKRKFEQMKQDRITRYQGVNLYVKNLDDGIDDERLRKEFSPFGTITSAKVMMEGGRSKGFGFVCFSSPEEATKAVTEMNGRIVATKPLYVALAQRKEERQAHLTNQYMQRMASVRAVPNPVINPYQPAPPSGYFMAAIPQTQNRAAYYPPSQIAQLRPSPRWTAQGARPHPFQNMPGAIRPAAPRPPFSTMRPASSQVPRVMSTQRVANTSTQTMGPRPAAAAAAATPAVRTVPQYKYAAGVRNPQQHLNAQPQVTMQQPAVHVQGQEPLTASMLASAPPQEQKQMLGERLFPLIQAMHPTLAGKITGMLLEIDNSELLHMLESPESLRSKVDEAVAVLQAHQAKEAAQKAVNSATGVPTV

[5] = target: T2, Dual specificity protein phosphatase 3; assay: SAR VHR1 Fluorescent Assay for In Vitro dose response studies. [Related pubchem assays (depositor defined):AID1654, AID1661, AID1878, AID1992, AID2004, AID2070, AID2085]; format: functional
[6] = target: T3, Polyadenylate-binding protein 1; assay: PABP1 MLLE–PAM2 interaction inhibitors, dose response, miRNA deadenylation inhibitor project, biochemical, fluorescence polarization, Cy5-PAM2 peptide, secondary (AID 602260); format: functional; settings: read-out: IC50_Mean
[7] = target: Dual specificity protein phosphatase 6 (Rattus norvegicus, UniProt Q64346); format: functional;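 further: confirmatory in vitro dose-response testing of MKP-3 inhibition; recombinant His-tagged MKP-3 made in E. coli BL21 with OMFP substrate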
Dual specificity protein phosphatase 6, sequence (Q64346 whole entry): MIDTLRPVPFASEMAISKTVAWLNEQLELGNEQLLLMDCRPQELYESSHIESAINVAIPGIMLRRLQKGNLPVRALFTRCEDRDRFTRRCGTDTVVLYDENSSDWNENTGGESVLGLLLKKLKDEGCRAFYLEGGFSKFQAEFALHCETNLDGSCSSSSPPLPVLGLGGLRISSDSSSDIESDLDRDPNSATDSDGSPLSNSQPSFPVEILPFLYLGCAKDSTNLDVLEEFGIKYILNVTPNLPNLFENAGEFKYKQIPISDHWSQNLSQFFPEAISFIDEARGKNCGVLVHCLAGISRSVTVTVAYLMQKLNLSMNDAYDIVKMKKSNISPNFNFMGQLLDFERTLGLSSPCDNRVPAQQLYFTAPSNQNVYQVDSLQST

[8] = test system: HEK293; assay: SAR Analysis of small molecule inhibitors of T-cell specific antigen receptor-induced NF-kB activation in a HEK-293T cell line using a luminescence assay - Set 2. [Related pubchem assays (depositor defined):AID435003, AID435012, AID489026]; format: functional, cell-based; settings: Homo sapiens
[9] = test system: Jurkat; assay: SAR Analysis of small molecule inhibitors of T-cell specific antigen receptor-induced NF-kB activation in a Jurkat cell line using a luminescence assay - Set 2. [Related pubchem assays (depositor defined):AID435003, AID435012, AID465]; format: functional, cell-based; settings: Homo sapiens
[10] = test system: HEK293; assay: cytotoxicity in HEK293T NF-kB-Luc cells, SAR follow-up, cytotoxicity control for NF-kB activator project, cell-based, resazurin fluorescence (AID 493251); format: functional; settings: Homo sapiens
[11] = target: T2, Dual specificity protein phosphatase 3; assay: SAR VHR1 Fluorescent Assay for In Vitro dose response studies Set 3. [Related pubchem assays (depositor defined):AID1654, AID1661, AID1878]; format: functional
[12] = target: T4, Insulin-degrading enzyme (Homo sapiens, UniProt P14735); assay: activators of endogenous IDE in HEK cells, dose response, cell-based, fluorescence polarization (AID 588439); format: functional
T4 sequence (P14735 whole entry): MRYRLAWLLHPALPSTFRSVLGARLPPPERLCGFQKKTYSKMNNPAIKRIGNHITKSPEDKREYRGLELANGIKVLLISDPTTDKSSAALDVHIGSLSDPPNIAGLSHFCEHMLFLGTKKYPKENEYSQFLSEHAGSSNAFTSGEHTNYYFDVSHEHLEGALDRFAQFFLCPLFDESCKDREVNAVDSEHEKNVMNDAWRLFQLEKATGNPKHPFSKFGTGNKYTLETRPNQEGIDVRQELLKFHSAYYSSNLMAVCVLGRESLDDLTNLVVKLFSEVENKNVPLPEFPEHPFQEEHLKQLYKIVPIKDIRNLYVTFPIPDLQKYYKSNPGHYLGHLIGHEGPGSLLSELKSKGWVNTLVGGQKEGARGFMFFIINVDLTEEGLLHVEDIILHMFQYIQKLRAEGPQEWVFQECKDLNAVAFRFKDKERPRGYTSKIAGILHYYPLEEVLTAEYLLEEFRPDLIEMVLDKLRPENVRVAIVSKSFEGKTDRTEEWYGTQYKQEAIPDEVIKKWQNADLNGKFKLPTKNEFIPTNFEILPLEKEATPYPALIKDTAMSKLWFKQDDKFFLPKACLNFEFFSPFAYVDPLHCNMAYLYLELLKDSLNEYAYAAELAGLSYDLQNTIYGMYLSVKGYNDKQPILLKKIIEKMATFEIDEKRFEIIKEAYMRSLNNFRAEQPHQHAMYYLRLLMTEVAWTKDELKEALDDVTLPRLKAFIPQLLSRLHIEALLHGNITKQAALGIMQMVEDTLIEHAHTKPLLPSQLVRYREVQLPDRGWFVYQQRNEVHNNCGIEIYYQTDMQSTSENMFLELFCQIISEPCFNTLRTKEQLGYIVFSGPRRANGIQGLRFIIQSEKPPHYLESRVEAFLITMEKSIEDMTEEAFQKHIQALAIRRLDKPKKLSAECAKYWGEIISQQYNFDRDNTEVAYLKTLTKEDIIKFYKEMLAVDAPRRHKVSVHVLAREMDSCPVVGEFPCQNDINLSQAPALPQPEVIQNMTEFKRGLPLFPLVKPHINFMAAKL

[13] = target: UDP-galactopyranose mutase (Mycobacterium tuberculosis, UniProt P9WIQ1); assay: Inhibitors of Mycobacterium tuberculosis UDP-galactopyranose mutase (UGM) enzyme Measured in Biochemical System Using Plate Reader - 2105-02_Inhibitor_Dose_CherryPick_Activity. [Related pubchem assays (depositor defined):AID504439]
UDP-galactopyranose mutase, sequence (P9WIQ1 whole entry): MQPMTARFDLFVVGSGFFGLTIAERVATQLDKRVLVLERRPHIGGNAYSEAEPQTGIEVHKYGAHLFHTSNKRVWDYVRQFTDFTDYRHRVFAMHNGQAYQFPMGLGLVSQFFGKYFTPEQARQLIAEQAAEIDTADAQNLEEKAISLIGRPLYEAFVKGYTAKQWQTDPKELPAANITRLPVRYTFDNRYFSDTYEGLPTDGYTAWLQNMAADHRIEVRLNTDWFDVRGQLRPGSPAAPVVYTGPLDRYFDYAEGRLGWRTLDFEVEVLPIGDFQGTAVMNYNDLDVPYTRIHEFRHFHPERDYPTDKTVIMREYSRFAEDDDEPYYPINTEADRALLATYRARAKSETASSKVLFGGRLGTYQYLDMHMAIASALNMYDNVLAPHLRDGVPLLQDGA

[14] = test system: HEK293; assay: optical interference in Abeta FP readout, dose response, artefact control for IDE activator project, biochemical, fluorescence polarization (AID 588442); format: functional, cell-based; settings: Homo sapiens
[15] = test system: CHO; assay: cytotoxicity in TLR9-MyD88 CHO cells, dose response, cytotoxicity control for TLR9-MyD88 binding inhibitor project, cell-based, luminescence (AID 588339); format: functional, hamster; settings: Cricetulus griseus;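 further: CHO cells stably coexpressing TLR9 and MyD88 fusions from primary screen; compound exposure lasted 48 hours before viability readout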
[16] = target: Keap1/Nrf2 (Homo sapiens, UniProt Q14145); assay: Keap1-Nrf2 protein-protein interaction inhibitors, dose response, biochemical, fluorescence polarization, cherry-picked samples (AID 588683)
Keap1/Nrf2, sequence (Q16236 whole entry): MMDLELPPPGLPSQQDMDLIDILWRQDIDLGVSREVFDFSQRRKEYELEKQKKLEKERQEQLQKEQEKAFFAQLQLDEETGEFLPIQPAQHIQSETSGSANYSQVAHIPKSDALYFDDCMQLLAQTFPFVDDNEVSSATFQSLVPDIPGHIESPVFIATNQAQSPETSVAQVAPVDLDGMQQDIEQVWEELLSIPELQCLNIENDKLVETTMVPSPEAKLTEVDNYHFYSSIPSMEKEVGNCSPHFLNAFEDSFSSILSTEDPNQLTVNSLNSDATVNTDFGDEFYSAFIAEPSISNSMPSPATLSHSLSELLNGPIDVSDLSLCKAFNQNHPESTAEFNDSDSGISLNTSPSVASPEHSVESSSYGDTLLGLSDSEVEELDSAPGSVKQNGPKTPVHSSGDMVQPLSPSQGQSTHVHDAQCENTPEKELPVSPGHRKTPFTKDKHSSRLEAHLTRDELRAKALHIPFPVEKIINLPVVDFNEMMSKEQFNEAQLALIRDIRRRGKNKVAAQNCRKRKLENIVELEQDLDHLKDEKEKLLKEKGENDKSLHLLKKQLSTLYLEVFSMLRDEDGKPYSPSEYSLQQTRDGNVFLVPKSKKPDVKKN
Keap1/Nrf2, sequence (Q14145 whole entry): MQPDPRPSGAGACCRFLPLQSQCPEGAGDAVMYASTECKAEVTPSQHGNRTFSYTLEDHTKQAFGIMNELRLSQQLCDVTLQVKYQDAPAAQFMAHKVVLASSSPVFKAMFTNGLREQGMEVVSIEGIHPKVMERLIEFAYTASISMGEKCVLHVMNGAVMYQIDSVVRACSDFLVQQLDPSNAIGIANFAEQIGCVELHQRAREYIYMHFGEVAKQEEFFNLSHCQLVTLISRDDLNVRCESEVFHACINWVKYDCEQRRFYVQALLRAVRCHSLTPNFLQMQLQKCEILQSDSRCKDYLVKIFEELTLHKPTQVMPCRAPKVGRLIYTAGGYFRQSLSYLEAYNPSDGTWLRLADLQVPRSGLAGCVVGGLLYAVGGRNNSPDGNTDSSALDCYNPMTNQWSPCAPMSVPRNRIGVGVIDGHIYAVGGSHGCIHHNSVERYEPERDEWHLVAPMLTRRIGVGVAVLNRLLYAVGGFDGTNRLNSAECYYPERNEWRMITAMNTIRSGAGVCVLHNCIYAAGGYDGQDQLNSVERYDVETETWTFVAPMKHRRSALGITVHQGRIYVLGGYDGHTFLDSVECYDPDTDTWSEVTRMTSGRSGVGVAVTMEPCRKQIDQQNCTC

[17] = target: Beta Lactamase (Pseudomonas aeruginosa, UniProt Q932Y6); assay: beta-lactamase reporter inhibitor potency, dose response, artefact control for TLR9-MyD88 binding inhibitor project, BLA reporter cells, FRET fluorescence (AID 588341); format: cell-based;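 further: cell based assay in CHO-K1 cells stably expressing beta-lactamase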
Beta Lactamase, sequence (Q932Y6 whole entry): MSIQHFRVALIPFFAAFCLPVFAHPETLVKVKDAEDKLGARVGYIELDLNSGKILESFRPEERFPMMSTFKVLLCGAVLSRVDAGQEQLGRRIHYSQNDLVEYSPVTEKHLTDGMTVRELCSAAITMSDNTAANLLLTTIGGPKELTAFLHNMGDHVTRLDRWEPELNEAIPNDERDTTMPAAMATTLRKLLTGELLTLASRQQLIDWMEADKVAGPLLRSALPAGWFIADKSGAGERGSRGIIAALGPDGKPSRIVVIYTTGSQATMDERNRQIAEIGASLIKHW

[18] = target: T4, Insulin-degrading enzyme; assay: activators of recombinant IDE enzyme, dose response, counter-screen for IDE activator project, biochemical, fluorescence polarization (AID 588681)
[19] = test system: HEK293; assay: HEK cell cytotoxicity by LDH release, dose response, cytotoxicity control for IDE activator project, fluorescence, HEK cells (AID 588440); format: functional, cell-based; settings: Homo sapiens;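 further: cytotoxicity by LDH release measuring loss of membrane integrity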
[20] = target: ORF 73 (Human herpesvirus 8, UniProt O40947); assay: inhibitors of C-LANA binding to LBS DNA, dose response, biochemical, fluorescence polarization, cherry-picked samples (AID 504725); set-up: species or system Human gammaherpesvirus 8;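 further: fluorescence polarization of a labeled DNA duplex reporting LANA DNA binding; potency is for inhibitors that block LANA binding to the DNA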
ORF 73, sequence (O40947 whole entry): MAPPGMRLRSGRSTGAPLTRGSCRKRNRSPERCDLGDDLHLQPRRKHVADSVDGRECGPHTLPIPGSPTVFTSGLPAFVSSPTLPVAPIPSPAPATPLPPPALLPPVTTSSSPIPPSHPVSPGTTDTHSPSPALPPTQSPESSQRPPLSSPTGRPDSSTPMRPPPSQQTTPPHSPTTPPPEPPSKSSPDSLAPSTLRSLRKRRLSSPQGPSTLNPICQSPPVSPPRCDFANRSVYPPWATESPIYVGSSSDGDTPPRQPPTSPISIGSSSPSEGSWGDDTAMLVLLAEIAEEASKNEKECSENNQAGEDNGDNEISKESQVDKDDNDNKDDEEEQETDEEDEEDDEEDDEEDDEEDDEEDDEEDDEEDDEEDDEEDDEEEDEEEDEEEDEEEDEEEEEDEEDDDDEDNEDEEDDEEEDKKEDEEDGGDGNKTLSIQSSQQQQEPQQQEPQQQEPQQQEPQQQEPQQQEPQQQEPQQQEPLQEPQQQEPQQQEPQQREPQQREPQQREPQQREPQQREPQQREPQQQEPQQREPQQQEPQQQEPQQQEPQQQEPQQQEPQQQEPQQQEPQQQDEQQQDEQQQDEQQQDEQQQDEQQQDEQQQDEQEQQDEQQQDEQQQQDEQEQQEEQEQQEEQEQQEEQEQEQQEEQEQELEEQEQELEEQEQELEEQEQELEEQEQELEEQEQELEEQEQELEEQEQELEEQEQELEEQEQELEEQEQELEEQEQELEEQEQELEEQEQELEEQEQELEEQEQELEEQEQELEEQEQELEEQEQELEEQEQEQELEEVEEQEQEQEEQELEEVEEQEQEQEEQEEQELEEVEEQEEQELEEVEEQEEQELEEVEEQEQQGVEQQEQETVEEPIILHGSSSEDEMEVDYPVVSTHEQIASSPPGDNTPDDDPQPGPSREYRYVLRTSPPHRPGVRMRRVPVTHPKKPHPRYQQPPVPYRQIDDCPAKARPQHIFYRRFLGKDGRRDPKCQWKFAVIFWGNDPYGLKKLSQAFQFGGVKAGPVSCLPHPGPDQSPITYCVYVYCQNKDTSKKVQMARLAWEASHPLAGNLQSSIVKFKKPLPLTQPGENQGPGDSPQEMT

Compound: COc1cc(C(=S)N2CCC(C)CC2)ccc1O
- IC50 [1]: 1.61 µM (active)
- IC50 [2]: > 100 µM (inactive)
- IC50 [3]: 1.21 µM (active)
- IC50 [4]: > 66 µM (inactive)
- IC50 [5]: 30.4 µM (active)
- IC50 [6]: > 66 µM (inactive)
- IC50 [7]: > 100 µM (inactive)

Compound: CC(C)c1ccc(C(NC(=O)C2CCCCC2)c2cc([N+](=O)[O-])c3cccnc3c2O)cc1 (stereo not given)
- IC50 [8]: 11.6 µM (active)
- IC50 [9]: 76.4 µM (inactive)
- IC50 [10]: 3.96 µM (active)

Compound: COc1ccc(C(=O)Nc2nc3c(OC)ccc(C)c3s2)cc1
- IC50 [11]: 48.7 µM (active)

Compound: CC(C)CCN1C(=O)c2cccc3c(N)ccc(c23)C1=O
- EC50 [12]: > 54.7 µM (inactive)
- AC50 [13]: 2.84 µM (active)
- EC50 [14]: 13.2 µM (inactive)
- IC50 [15]: > 49.8 µM (inactive)
- AC50 [16]: 1.71 µM (active)
- IC50 [17]: 4.77 µM (active)
- EC50 [18]: > 54.7 µM (inactive)
- IC50 [19]: > 89.3 µM (inactive)
- AC50 [20]: 5.98 µM (active)
